The text below walks through data of US20260373132A1, “PERK INHIBITORHC-5404 IN COMBINATION WITH ANTI-PD-1 ANTIBODY AND/OR AN ANTIANGIOGENETIC AGENT FOR USE IN THE TREATMENT OF CANCER” (HIBERCELL, INC., priority 2022, published 2026).

The test system of series [1] is MB49 syngeneic bladder cancer model. As to the kind of experiment: MB49 syngeneic bladder cancer tumor growth. Format: in vivo, mouse. How it is done:
C57BL/6 mice were subcutaneously inoculated with MB49 cells, and treatment started on day 8 post cell inoculation. A group of animals (n=10/group) received either vehicle, HC-5404 (PO, BID) (3 mg/kg, 10 mg/kg, or 30 mg/kg), 5 mg/kg anti-PD-1 antibody (aPD-1) (RMP1-14) (IP, BIW), or the combination of both. At various timepoints, animals were sacrificed, and flow cytometry was performed on blood or single cell suspensions from tumors or lymph nodes (n=6).
MB49 (lot #18B016) mouse urothelial carcinoma cell line was purchased from Sigma—The European Collection of Authenticated Cell Cultures (ECACC). Cells were free of human and animal pathogens as tested by h-IMPACT-I and IMPACT-III (IDEXX Bioresearch, Columbia, MO). Additionally, the genetic profile of the cells matched with the ECACC reference standard as tested by STR based DNA fingerprinting assay. Cells were maintained in DMEM with 10% FBS, and cultured up to 4 passages prior to implantation. Cells were harvested at ~80% confluence, washed twice with DMEM without FBS and suspended in DMEM without FBS at 5×10^6 cells/mL for implantation.
[…] (7-8 week of age) were implanted into the right flank area subcutaneously under Isoflurane anesthesia with 0.5×10^6 MB49 cells/mouse in a total volume of […] on Day 0. Animals were randomized into treatment groups when the average tumor volume reached ~50 mm^3 on Day 5 post inoculation.
Tumor volume was measured twice weekly.
Tumor volume was calculated using the formula [tumor volume (mm^3)=π/6×length×width^2) and plotted as means±SEM. The % T/C (ratio between the tumor volume in the treated group and in the control group) was calculated by the formula 100×ΔT/ΔC, if ΔT>0 of the mean values. ΔT, mean tumor volume of the drug-treated group on the observation day of the study—mean tumor volume of the drug-treated group on initial day of dosing; ΔC, mean tumor volume of the control group on the observation day of the study—mean tumor volume of the control group on initial day of dosing. Regression was calculated using the formula=100×ΔT/Tinitial, if ΔT<0. Animals with <14 mm^3 tumor volume for three consecutive measurements were considered as complete responders and tumors with >50% regressions were partial responders.
This example investigated the effect of HC-5404, aPD-1, and HC-5404 in combination with aPD-1 on myeloid cells in tumor microenvironment and T-cell activation following procedures analogous to those described above using MB49 syngeneic model. […] Mice with established syngeneic MB49 tumors were randomized 6 days post tumor inoculation into groups that received either vehicle (0.5% methylcellulose in water, BID, PO), HC-5404 (10 or 30 mg/kg, BID, PO), anti-PD-1 Ab (10 mg/kg, BIW), or both HC-5404 and anti-PD-1.

A further series relates to mouse pancreas. As to the kind of experiment: pancreas histology (pancreatic toxicity). The format is in vivo. How it is done: As PERK inhibition has been associated with pancreatic toxicity, pancreas sections were evaluated from mice treated with 30 mg/kg or 100 mg/kg HC-5404. […] Together, these findings further supported the decision to dose at 30 mg/kg HC-5404 in subsequent in vivo studies.

The test system of the next series is SMTCA75. Put plainly: RCC PDX single animal trial, SMTCA75. Conditions: HC-5404 30 mg/kg PO BID, n=1. The format is in vivo, mouse. The text has this: This example investigated the effect of HC-5404 in combination with VEGFR-TKIs in inhibiting tumor growth using 12 RCC PDX tumor models, following procedures analogous to those described above.
Single animal per group (n=1) trial of animals harboring diverse RCC PDX models were used in this study.

Series [2] deals with ATF4 targets in gastric PDX (GAO 114-R19P6). Put plainly: ATF4 target proteins in gastric PDX. The format is in vivo, mouse. Particulars: 7 days, 1 h post-dose (FIG. 81, 82). How it is done: Samples were put in 500 μL of Novex lysis buffer consisting of 2× Novex Tris-Glycine SDS sample buffer (ThermoFisher LC2676), 1× Phosphatase Inhibitor Cocktail III (Sigma P0044), 1× PhosphataseArrest I (Gbioscience 113P-D), 1×2-mercaptoethanol (Gibco 21985023), 1× Benzonase (EMD Millipore Corp 70746-3), and 1× Protease inhibitor cocktail tablet (Roche/Sigma 11836170001). Samples were homogenized with the Polytron and heated for 10 min at 95 °C. They were then centrifuged at max speed for 10 min and the supernatant was transferred. Protein concentrations of samples were measured using the Pierce 660 nm Protein assay kit (Thermo Scientific 22660) according to the manufacturer's instructions.
Western Blot analysis was performed on the SimpleWestern high-throughput protein analysis platform (ProteinSimple 004-650) according to manufacturer's protocol using a 12-230 kDA Separation Module (ProteinSimple SM-W004) and Total Protein Detection Module (ProteinSimple DM-TP01). Antibodies used were: (Add info for other antibodies used) pPERK (Lilly; 1:50) and PERK (Cell Signaling Technology 5683; 1:200). All protein analytes were normalized to total protein loaded on capillary.
Gastric PDX model (GAO 114-R19P6) PD arm sampled after 7 days, 1 h post-dose.

As for `Cc1cc(NC(=O)[C@H](O)c2cc(F)cc(F)c2)ccc1-c1cnc(N)c(C(=O)NC(C)C)c1` [HC-5404, (R)-2-amino-5-(4-(2-(3,5-difluorophenyl)-2-hydroxyacetamido)-2-methylphenyl)-N-isopropylnicotinamide], the TGI % in series [1] (Experiment #1, HC-5404 30 mpk, aPD-1, alone or combined) turned out to be 52.99%; in series [1] (Experiment #2, HC-5404 30 mpk, aPD-1, alone or combined), 10.64%. In addition, in series [1] (HC-5404 PO BID, aPD-1 5 mg/kg IP BIW, alone or combined), the “tumor growth inhibition (TGI)” value was found to be 32%. Also, the “TGI %, average” value in series [1] (average of two independent studies, HC-5404 30 mpk, aPD-1, alone or combined) is 31.82%. Besides, the “reversibility of histological pancreas changes” value in the series with mouse pancreas (100 mg/kg PO BID, two-week washout) is listed as “reversible with a two-week washout period”. For the same compound, in the series with mouse pancreas (30 or 100 mg/kg PO BID, three weeks), the “histological changes in the pancreas” value is recorded as “histological changes in the pancreas only in the 100 mg/kg dose”. Also, in the series with SMTCA75, the “antitumor efficacy as monotherapy” value is reported as “exhibited antitumor efficacy”. Further, the ATF4 target genes entry in series [2] was “induces ATF4 target genes, including ASNS, PSAT1 and other enzymes involved in amino acid metabolism”.
